# Laboratory results as given in patent EP0633316A1, “Lys-aminopeptidase PepN from lactobacillus delbruckii ssp. Lactis, nucleic acids coding for it, and its use in fermentation processes” (EUROPEAN ECONOMIC COMMUNITY E.E.C., priority 1993, dated 1995).
# Where two headings read alike, the source gives them in different places. Non-standard residues stand in square brackets, D forms with d. Residues, ends and D or L forms follow the SMILES beside them. *: point of attachment. Sta = CC(C)C[C@H](N)[C@@H](O)CC(=O)O; pNA = O=[N+]([O-])c1ccc(N*)cc1; Isovaleryl = CC(C)CC(=O)*
# T1: PepN (Lactobacillus delbrueckii subsp. lactis, UniProt P37896)
# T1 construct: made in house; host or cells: E. coli CM89 (pepN-deficient) harbouring plasmid pUK13
# T1 sequence (P37896 1-843): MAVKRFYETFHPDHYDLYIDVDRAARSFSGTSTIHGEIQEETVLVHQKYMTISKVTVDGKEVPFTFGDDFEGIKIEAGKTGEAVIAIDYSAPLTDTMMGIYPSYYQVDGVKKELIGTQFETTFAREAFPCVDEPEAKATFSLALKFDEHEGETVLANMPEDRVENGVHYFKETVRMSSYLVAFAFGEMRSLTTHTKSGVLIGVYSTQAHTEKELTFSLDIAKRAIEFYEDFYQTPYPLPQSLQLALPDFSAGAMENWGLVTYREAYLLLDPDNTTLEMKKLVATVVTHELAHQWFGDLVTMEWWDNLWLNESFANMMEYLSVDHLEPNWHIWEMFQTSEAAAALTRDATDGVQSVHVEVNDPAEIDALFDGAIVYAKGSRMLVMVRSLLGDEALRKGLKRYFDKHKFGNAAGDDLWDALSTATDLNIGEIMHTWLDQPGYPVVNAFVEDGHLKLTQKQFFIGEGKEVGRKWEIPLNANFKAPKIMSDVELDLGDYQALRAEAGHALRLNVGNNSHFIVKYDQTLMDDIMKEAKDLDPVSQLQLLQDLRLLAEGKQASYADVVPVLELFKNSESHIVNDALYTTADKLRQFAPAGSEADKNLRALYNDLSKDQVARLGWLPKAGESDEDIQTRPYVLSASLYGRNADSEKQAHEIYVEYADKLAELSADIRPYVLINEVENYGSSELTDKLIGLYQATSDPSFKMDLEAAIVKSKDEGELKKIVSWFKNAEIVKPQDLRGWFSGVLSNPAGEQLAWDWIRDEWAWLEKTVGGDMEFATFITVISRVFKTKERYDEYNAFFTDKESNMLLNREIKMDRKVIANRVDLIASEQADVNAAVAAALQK
# How the values were obtained:
# Format in all cases: biochemical, Lactobacillus delbrückii ssp. lactis
# PepN [1] = molecular target: T1, PepN; assay: Substrate specificity of purified PepN against p-nitroanilide substrates; conditions: p-nitroanilide substrates 1 mM, 10 min at 37°C, Tris-HCl 10 mM pH 8.0
# Method: (§1) For characterization of the enzyme the p-nitroanilide subtrates (Bachem) were dissolved in water and added to the reaction mixture [Tris-HCl 10 mM, pH 8.0, and varying amounts of purified enzyme (1-200 ng)] to a concentration of 1 mM in a volume of 250 µl. Release of p-nitroaniline was measured after a 10 min incubation at 37°C at […] in a LKB Ultrospec plus spectrophotometer. For rapid screening of active fractions during purification of the enzyme, samples were prepared in micro titer plates and measured in a BIORAD model 2550 EIA reader.
# PepN [2] = molecular target: T1, PepN; assay: biochemical; conditions: for activity at 1000 µM: read-out: relative activity
# Method: The percentages of relative activity indicated above, correspond to residual activities after addition of the inhibitor as compared with the control without inhibitor. The conditions and methods for determination are taken from "Proteolytic enzymes, a practical approach, Beynon R.J. and Bond J.S., Oxford University Press 1989." (Chapter 4, Determination of protease mechanism, Ben M. Dunn).
# as §1
# To study the mechanism of enzyme action, the inhibitors phenylmethansulphonyl fluoride (PMSF) at a concentration of 1 mM, pepstatin A at 1 µg/ml, L-trans-epoxysuccinyl-leucylamide(4-guanidino)-butane (E-64) at 0.1 mM, and 1,10-phenanthroline or EDTA at 1 mM were added to the enzyme and incubated for 30 min at 37°C. The substrate lys-p-nitroanilide was added and activity was measured spectrophotometrically by the release of p-nitroaniline.
# [3] = substrate: NCCCC[C@H](N)C(=O)Nc1ccc([N+](=O)[O-])cc1; assay: Substrate specificity of purified PepN against p-nitroanilide substrates; conditions: other: Lineweaver-Burk plot; pH 8.0; 37.0 °C
# Method: as §1
# [4] = PMSF 1 mM, pepstatin A 1 µg/ml, E-64 0.1 mM, 1,10-phenanthroline or EDTA 1 mM, 30 min at 37°C, substrate lys-p-nitroanilide
molecule,measurement,setting,value
N[C@@H](Cc1ccc(O)cc1)C(=O)Nc1ccc([N+](=O)[O-])cc1 [Tyr-pNA],relative activity (%),PepN [1],2%
C[C@H](N)C(=O)N1CCC[C@H]1C(=O)Nc1ccc([N+](=O)[O-])cc1 [Ala-Pro-pNA] (H-Ala-Pro-pNA),relative activity (%),PepN [1],0%
"c1cnc2c(c1)ccc1cccnc12 [Phenanthroline, 1,10-phenanthroline]",effect on enzyme activity,PepN [2]; [4],full inhibition
same,activity at 1000 µM,"PepN [2]; end concentration 1 mM, residual activity after addition of the inhibitor compared with control without inhibitor",4%
CC(C)C[C@H](N)C(=O)Nc1ccc([N+](=O)[O-])cc1 [Leu-pNA],relative activity (%),PepN [1],19%
NCC(=O)Nc1ccc([N+](=O)[O-])cc1 [Gly-pNA],relative activity (%),PepN [1],1%
"O=S(=O)(F)Cc1ccccc1 [PMSF, phenylmethansulphonyl fluoride]",effect on enzyme activity,PepN [2]; [4],no effect
"NCCCC[C@H](N)C(=O)Nc1ccc([N+](=O)[O-])cc1 [Lys-pNA, lys-p-nitroanilide]",relative activity (%),PepN [1],100%
C[C@H](N)C(=O)Nc1ccc([N+](=O)[O-])cc1 [Ala-pNA],relative activity (%),PepN [1],12%
N[C@@H](Cc1ccccc1)C(=O)Nc1ccc([N+](=O)[O-])cc1 [Phe-pNA],relative activity (%),PepN [1],8%
"CC(C)CC(=O)N[C@H](C(=O)N[C@H](C(=O)N[C@@H](CC(C)C)[C@@H](O)CC(=O)N[C@@H](C)C(=O)N[C@@H](CC(C)C)[C@@H](O)CC(=O)O)C(C)C)C(C)C [Pepstatin A, pepstatin A] (Isovaleryl-VV[Sta]A[Sta]-OH)",effect on enzyme activity,PepN [2]; [4],no effect
"CC(C)CC(NC(=O)C1OC1C(=O)O)C(=O)NCCCCN=C(N)N [E-64, L-trans-epoxysuccinyl-leucylamide(4-guanidino)-butane]",effect on enzyme activity,PepN [2]; [4],no effect
O=C(Nc1ccc([N+](=O)[O-])cc1)[C@@H]1CCCN1 [Pro-pNA],relative activity (%),PepN [1],2%
O=C(O)CN(CCN(CC(=O)O)CC(=O)O)CC(=O)O [EDTA],effect on enzyme activity,PepN [2],full inhibition
same,activity at 1000 µM,PepN [2],3%
"PepN (Lactobacillus delbrueckii subsp. lactis) (protein, made in house; host or cells: E. coli CM89 (pepN-deficient) harbouring plasmid pUK13) MAVKRFYETFHPDHYDLYIDVDRAARSFSGTSTIHGEIQEETVLVHQKYMTISKVTVDGKEVPFTFGDDFEGIKIEAGKTGEAVIAIDYSAPLTDTMMGIYPSYYQVDGVKKELIGTQFETTFAREAFPCVDEPEAKATFSLALKFDEHEGETVLANMPEDRVENGVHYFKETVRMSSYLVAFAFGEMRSLTTHTKSGVLIGVYSTQAHTEKELTFSLDIAKRAIEFYEDFYQTPYPLPQSLQLALPDFSAGAMENWGLVTYREAYLLLDPDNTTLEMKKLVATVVTHELAHQWFGDLVTMEWWDNLWLNESFANMMEYLSVDHLEPNWHIWEMFQTSEAAAALTRDATDGVQSVHVEVNDPAEIDALFDGAIVYAKGSRMLVMVRSLLGDEALRKGLKRYFDKHKFGNAAGDDLWDALSTATDLNIGEIMHTWLDQPGYPVVNAFVEDGHLKLTQKQFFIGEGKEVGRKWEIPLNANFKAPKIMSDVELDLGDYQALRAEAGHALRLNVGNNSHFIVKYDQTLMDDIMKEAKDLDPVSQLQLLQDLRLLAEGKQASYADVVPVLELFKNSESHIVNDALYTTADKLRQFAPAGSEADKNLRALYNDLSKDQVARLGWLPKAGESDEDIQTRPYVLSASLYGRNADSEKQAHEIYVEYADKLAELSADIRPYVLINEVENYGSSELTDKLIGLYQATSDPSFKMDLEAAIVKSKDEGELKKIVSWFKNAEIVKPQDLRGWFSGVLSNPAGEQLAWDWIRDEWAWLEKTVGGDMEFATFITVISRVFKTKERYDEYNAFFTDKESNMLLNREIKMDRKVIANRVDLIASEQADVNAAVAAALQK",Km,[3],70 µM
